Measurements from patent US9593068B2, “Derivatives of tartaric acid” (RATIOPHARM GMBH, priority 2013, dated 2017).

test: Kinetics of MMF-release during incubation in intestinal fluid of the minipig (LC-MS quantification of MMF); assay type: in vitro ADME, Göttingen SPF minipig; settings: diluted small intestinal fluid (1/20 v/v with 50 mM KH2PO4, pH 6.8), 37° C., samples at 0-120 min; reference DMF; FIG. 1 / FIG. 2
Description: Investigation and Comparision of the Kinetics of MMF-Release of the Different Compounds of the Present Invention and DMF During Incubation in Intestinal Fluid of the Minipig
Intestinal fluid samples were prepared at CiToxLAB Scantox A/S. The samples were taken from 1 female Göttingen SPF minipig from CiToxLAB Scantox A/S standard stock, originally obtained from Ellegaard Göttingen Minipigs A/S, DK-4261 Dalmose, Denmark. The minipig was 10 months old and the body weight was 21 kg. The minipig was identified by an individual number tagged to the pinna of one ear (animal number is documented in the raw data).
The minipig was fasted for approximately 28 hours before sampling of intestinal fluid. On the day of sampling, the minipig was weighed and anaesthetised by an intramuscular injection in the neck or in the left hind leg (about 0.3 ml per kg body weight) of a mixture of Zoletil 50 Vet., Virbac, France (125 mg tiletamine and 125 mg zolazepam), Rompun Vet., Bayer, Germany (20 mg xylazine/ml, 6.5 ml), Ketaminol Vet., Veterinaria AG, Switzerland (100 mg ketamine/ml, 1.5 ml) and Methadon DAK, Nycomed Danmark, Denmark (10 mg methadon/ml, 2.5 ml).
Intestinal fluid was obtained by flushing one jejunal segment, measuring 30.2 cm, with saline. Intestinal fluid together with saline used for flushing was placed in centrifuge tubes. All samples were frozen at −70° C. and shipped on dry ice to the Sponsor for further use.
2.1.1. Analytical Instrument • Instrument: Acquity UPLC system coupled with a TQ detector (triple quadruple mass spectrometer)
Calibration solutions were prepared by serial dilution of SSMMF; diluted small intestinal fluid (diluted by 1/20 v/v with 50 mM KH2PO4, pH 6.8; (dil IF) was used as matrix. The dilution scheme is given below:
50 μl sample (calibration solution or sample of an incubation experiment with MMF prodrugs) was mixed with 50 μl WSISTD, 20 μl formic acid and 100 μl acetonitrile. This mixture was vortexed for 15 sec and centrifuged (13,000 rpm, 3 min). Thereafter, 4 μl of the supernatant were subjected to LC-MS analysis.
2.2. Incubation Experiments with DMF (Reference) and Compounds of the Invention
Stock solutions were prepared in DMSO. Concentrations in stock solutions were 5.00, 2.50 and 1.67 mmol for compounds with one, two and three molar MMF equivalents.
In a HPLC glass vial, 8 μl of stock solution were mixed with 792 μl dil IF and the mixture was stirred (250 rpm) in a water bath (T=37° C.).
Immediately after mixing as well as at t=15 min, 30 min, 60 min, 90 min and 120 min, 50 μl were withdrawn and prepared for LC-MS analysis as described in chapter. 2.1.3.
Incubations were continued and in case the result of analysis of the 120 min indicated the presence of remaining intact MMF prodrug, additional samples were taken (t=360 or 420 min and at 1,260 or 1,320 min) and analysed.
The concentration/peak area ratio data pairs were subjected to regression analysis with 1/x weighting and the resulting calibration equation was used to quantify the MMF content in incubation samples.

hydrolyzation (to MMF) compared to DMF | release kinetics (MMF release) compared to DMF | Structure (SMILES)
modified hydrolyzation compared to DMF | significantly slower than the one of DMF | CCOC(=O)[C@H](OC(=O)/C=C/C(=O)OC)[C@@H](OC(=O)/C=C/C(=O)OC)C(=O)OCC [Example 1, (E)-But-2-enedioic acid (1R,2R)-1,2-bis-ethoxy-carbonyl-2-((E)-3-methoxycarbonyl-acryloyloxy)-ethyl ester methyl ester]
modified hydrolyzation compared to DMF | significantly slower than the one of DMF | COC(=O)/C=C/C(=O)O[C@@H](C(=O)OC(C)C)[C@@H](OC(=O)/C=C/C(=O)OC)C(=O)OC(C)C [Example 2, (E)-But-2-enedioic acid (1R,2R)-1,2-bis-isopropoxycarbonyl-2-((E)-3-methoxycarbonyl-acryloyloxy)-ethyl ester methyl ester]

Structure (SMILES) | hydrolyzation (to MMF) compared to DMF | release kinetics (MMF release) compared to DMF
COC(=O)/C=C/C(=O)OCCN(CCO)CCOC(=O)/C=C/C(=O)OC [Example 3, (2-Hydroxy-ethyl)-bis-[2-((E)-3-methoxycarbonyl-acryloyloxy)-ethyl]-amine] | modified hydrolyzation compared to DMF | significantly slower than the one of DMF
